# Measurements published in patent US20250243220A1, “ATR INHIBITORS” (APREA THERAPEUTICS, INC., priority 2022, published 2025).
# Columns and labels:
# Type in all cases: cell-based
# MEC (+APH) = experiment: MEC (+APH)
# HCT116 Bcl/xl = experiment: IC50 assay by Western blot (APH-treated cells), HCT116 Bcl/xl; conditions: for IC50: Homo sapiens, HCT-116
# Description: (§1) E. Treatment of Cells for IC50 Assay by Western Blot
# (§2) The compound is stored as a 1 mM stock solution prepared in accordance with the Receipt of Compound SOP. The stock solution is diluted in cell media in two separate 1:10 dilution series.
# (§3) 1. Arrange twelve 15-mL centrifuge tubes in a rack in two series and label them in accordance with Dilutions Series 1 and Dilution Series 2 shown in Table 1 and Table 2, respectively.
# (§4) 2. Place 2.5 mL of prewarmed cell media in each of the […]. Place 2.25 mL of prewarmed cell media in the remaining tubes.
# (§5) 3. Add 7.5 μL of 1 mM compound stock solution in the 3 μM tube. Mix well.
# (§6) 4. Add 2.5 μL of 1 mM compound stock solution in the 1 μM tube. Mix well.
# (§7) 5. For each series (separately), remove 250 μL from the leftmost tube and transfer to the next tube to the right. Repeat for each tube until the series is complete.
# (§8) 6. Set aside the 1 μM tube, the 3 μM tube, and the 300 nM tube for discard.
# (§9) 7. The cells to be treated will be in 6-well plates labeled by cell line. Remove the cells from the incubator and label the wells with the dosages to be administered.
# (§10) 8. Arrange the dilution tubes in the rack in a manner that reflects the 6-well plate arrangement so as to avoid confusion when administering the dosage solutions to the appropriate wells.
# (§11) 9. Aspirate the three wells in the top row of the first plate (labeled NT, APH+, and APH+) and replace with 2 mL fresh media (without drug compound).
# (§12) 10. Aspirate the three wells in the bottom row of the first plate and replace each well with 2 mL of solution from the appropriate tube.
# (§13) 11. Repeat step 10 for the next row of wells (top row second plate). and then for the final row of wells (bottom row second plate).
# (§14) 12. Place both plates into the incubator for 30 minutes.
# (§15) 13. After 30 minutes have elapsed, remove the plates from the incubator.
# (§16) 14. Acquire stock solution of APH (5 mM) and add 2 μL of the APH stock solution to the center of each well except the well labeled NT.
# (§17) 15. Swirl the plates carefully and gently to diffuse the APH throughout each well.
# (§18) 16. Place the plates back in the incubator for 4 hours, at which point the cells will be harvested for analysis.
# (§19) 17. Twenty minutes before harvesting (or 3 hours and 40 minutes after administration of APH), turn on a heat block suitable to heat Eppendorf tubes. Set the temperature to 95° C.
# (§20) 18. Set up a number of Eppendorf tubes equal to the number of wells treated (i.e., twelve per two-plate drug administration), and label each tube with cell line, compound administered, dosage level, and date. Leave the tubes open.
# (§21) 19. Add 200 mL DI water to a beaker.
# (§22) 20. After 4 hours, remove treated plates from incubator.
# (§23) 21. Aspirate media from all wells.
# (§24) 22. Wash each well with 2 mL 1×PBS and aspirate.
# (§25) 23. Sterilize vacuum line with 70% ethanol by spraying some into the nozzle while the vacuum is engaged. Shut off vacuum.
# (§26) 24. Add Laemmli buffer to each well. For HCT116 Bcl/xl, OVCAR-3, and 22RV1 cells, add 300 μL per well; for OVCAR-8 and SKOV-3 cells, add 250 μL per well.
# (§27) 25. Scrape the first well thoroughly. Place the scraper into the DI water between uses.
# (§28) 26. Transfer the lysed cell debris mixture to the first tube carefully. The mixture will be viscous. Use a 1000-μL pipettor. Close the tube.
# (§29) 27. Repeat steps 25 and 26 for each well.
# (§30) 28. When all wells have been harvested, place all the tubes into the heat block. Place a weighted, heat-resistant object on top of the tubes to keep them closed.
# (§31) 29. After 5 minutes, remove the tubes from the heat block and turn it off. Vortex each tube for 10 seconds. Be cautious of tubes popping open.
# (§32) 30. Allow the tubes to come to room temperature and proceed to further analysis or store frozen at −20° C.
# OVCAR-3 = experiment: IC50 assay by Western blot (APH-treated cells), OVCAR-3; conditions: OVCAR-3 cells; for IC50: Homo sapiens
# Description: as §1, §2, §3, §4, §5, §6, §7, §8, §9, §10, §11, §12, §13, §14, §15, §16, §17, §18, §19, §20, §21, §22, §23, §24, §25, §26, §27, §28, §29, §30, §31, §32
# OVCAR-8 = experiment: IC50 assay by Western blot (APH-treated cells), OVCAR-8; conditions: OVCAR-8 cells; for IC50: Homo sapiens
# Description: as §1, §2, §3, §4, §5, §6, §7, §8, §9, §10, §11, §12, §13, §14, §15, §16, §17, §18, §19, §20, §21, §22, §23, §24, §25, §26, §27, §28, §29, §30, §31, §32
# SKOV-3 = experiment: IC50 assay by Western blot (APH-treated cells), SKOV-3; conditions: SKOV-3 cells; for IC50: Homo sapiens, SK-OV-3
# Description: as §1, §2, §3, §4, §5, §6, §7, §8, §9, §10, §11, §12, §13, §14, §15, §16, §17, §18, §19, §20, §21, §22, §23, §24, §25, §26, §27, §28, §29, §30, §31, §32
# 22RV1 = experiment: IC50 assay by Western blot (APH-treated cells), 22RV1; conditions: 22RV1 cells; for IC50: Homo sapiens
# Description: as §1, §2, §3, §4, §5, §6, §7, §8, §9, §10, §11, §12, §13, §14, §15, §16, §17, §18, §19, §20, §21, §22, §23, §24, §25, §26, §27, §28, §29, §30, §31, §32
# [1] = system: HCT Bcl/xl, OVCAR-3, OVCAR-8, SKOV-3, 22RV1 cell lines; experiment: Ave. IC50 across cell lines; conditions: average across cell lines
SMILES,minimal effective concentration (MEC (+APH)) [µM],IC50 (HCT116 Bcl/xl) [nM],PALD (Percent Activity at Lowest Dose tested) HCT Bcl/xl (HCT116 Bcl/xl),IC50 (OVCAR-3) [nM],PALD (Percent Activity at Lowest Dose tested) OVCAR-3 (OVCAR-3),IC50 (OVCAR-8) [nM],PALD (Percent Activity at Lowest Dose tested) OVCAR-8 (OVCAR-8),IC50 (SKOV-3) [nM],PALD (Percent Activity at Lowest Dose tested) SKOV-3 (SKOV-3),PALD (Percent Activity at Lowest Dose tested) 22RV1 (22RV1),IC50 (22RV1) [nM],IC50 [1] [nM]
"CC1(O)CCCCCCOc2c(CN)cccc2NC(=O)c2nc(cnc2N)-c2ccc(cc2)S(=O)(=O)C(C)(C)C1 (racemic) [Compound C, 5-amino-13-(aminomethyl)-22-hydroxy-22,24,24-trimethyl-25,25-dioxo-15-oxa-25λ^6-thia-4,8,31-triazatetracyclo[24.2.2.1^2,6.0^9,14]hentriaconta-1(28),2(31),3,5,9(14),10,12,26,29-nonaen-7-one]",1e-05,2.06,(65%),3.85,(158%),6.8,(73%),1.08,(100%),(90%),4.32,3.6
"CNCc1ccc(-c2cc(-c3nc(-c4ccc(S(=O)(=O)C(C)C)cc4)cnc3N)on2)cc1 [VE822, reference compound]",0.0003,62.1,(105%),11.5,(79%),84.6,(89%),9.5,(55%),(86%),84.9,50
"CNCc1cccc2c1OCCCCCC[C@](C)(O)CC(C)(C)S(=O)(=O)c1ccc(cc1)-c1cnc(N)c(n1)C(=O)N2 (single isomer, unassigned) [Compound A-1]",2e-05,2.68,(110%),4.09,(116%),2.16,(91%),2.85,(81%),(121%),4.69,3.29
"C[C@@H]1COCCN1c1cc(C2([S@](C)(=N)=O)CC2)nc(-c2cc[nH]c3nccc2-3)n1 [AZD 6738, reference compound]",0.0003,57.1,,91.8,(190%),86.6,(116%),107,(105%),(165%),275,123
"CNCc1cccc2c1OCCCCCCC(C)(O)CC1(CC1)S(=O)(=O)c1ccc(cc1)-c1cnc(N)c(n1)C(=O)N2 (racemic) [Compound B, 5-amino-22-hydroxy-22-methyl-13-(methylaminomethyl)-25,25-dioxo-spiro[15-oxa-25λ^6-thia-4,8,31-triazatetracyclo[24.2.2.1^2,6.0^9,14]hentriaconta-1(28),2,4,6(31),9(14),10,12,26,29-nonaene-24,1′-cyclopropane]-7-one]",4e-05,4.63,(115%),2.15,(121%),4.47,(94%),2.62,(106%),(141%),2.99,3.37
"CNCc1cccc2c1OCCCCCC[C@@](C)(O)CC(C)(C)S(=O)(=O)c1ccc(cc1)-c1cnc(N)c(n1)C(=O)N2 (single isomer, unassigned) [Compound A-2]",2e-05,2.29,(91%),0.753,(101%),2.95,(82%),2.71,(110%),(107%),3.44,2.42
